The record followed here is US9340590B2 (priority 2011, dated 2016).

pIC50: −log10 of the molar value. Read-outs that look alike come from different tables or passages of the source. Positions of bridges follow the written chain, without caps; N, C: chain ends. Non-standard residues stand in square brackets, D forms with d. Residues, ends and D or L forms follow the SMILES beside them. 2Nal = N[C@@H](Cc1ccc2ccccc2c1)C(=O)O

Experiment in all cases: cell-based
The target in one assay is hNav1.7 (Homo sapiens, UniProt Q15858). Format: cell-based. The settings on record: IonWorks Quattro, read-out: IWQ Use Nav1.7. (In general: The patch-clamp technique gives a direct electrical read-out from membranes.)
Another assay addresses hNav1.5 (Homo sapiens, UniProt Q14524). The settings on record: IonWorks Quattro, read-out: IWQ Use Nav1.5.
The next assay addresses hNav1.3 (Homo sapiens, UniProt Q9NY46). The note with it: IonWorks Quattro, read-out: IWQ Use Nav1.3.

hNav1.3, sequence (Q9NY46 whole entry, looked up): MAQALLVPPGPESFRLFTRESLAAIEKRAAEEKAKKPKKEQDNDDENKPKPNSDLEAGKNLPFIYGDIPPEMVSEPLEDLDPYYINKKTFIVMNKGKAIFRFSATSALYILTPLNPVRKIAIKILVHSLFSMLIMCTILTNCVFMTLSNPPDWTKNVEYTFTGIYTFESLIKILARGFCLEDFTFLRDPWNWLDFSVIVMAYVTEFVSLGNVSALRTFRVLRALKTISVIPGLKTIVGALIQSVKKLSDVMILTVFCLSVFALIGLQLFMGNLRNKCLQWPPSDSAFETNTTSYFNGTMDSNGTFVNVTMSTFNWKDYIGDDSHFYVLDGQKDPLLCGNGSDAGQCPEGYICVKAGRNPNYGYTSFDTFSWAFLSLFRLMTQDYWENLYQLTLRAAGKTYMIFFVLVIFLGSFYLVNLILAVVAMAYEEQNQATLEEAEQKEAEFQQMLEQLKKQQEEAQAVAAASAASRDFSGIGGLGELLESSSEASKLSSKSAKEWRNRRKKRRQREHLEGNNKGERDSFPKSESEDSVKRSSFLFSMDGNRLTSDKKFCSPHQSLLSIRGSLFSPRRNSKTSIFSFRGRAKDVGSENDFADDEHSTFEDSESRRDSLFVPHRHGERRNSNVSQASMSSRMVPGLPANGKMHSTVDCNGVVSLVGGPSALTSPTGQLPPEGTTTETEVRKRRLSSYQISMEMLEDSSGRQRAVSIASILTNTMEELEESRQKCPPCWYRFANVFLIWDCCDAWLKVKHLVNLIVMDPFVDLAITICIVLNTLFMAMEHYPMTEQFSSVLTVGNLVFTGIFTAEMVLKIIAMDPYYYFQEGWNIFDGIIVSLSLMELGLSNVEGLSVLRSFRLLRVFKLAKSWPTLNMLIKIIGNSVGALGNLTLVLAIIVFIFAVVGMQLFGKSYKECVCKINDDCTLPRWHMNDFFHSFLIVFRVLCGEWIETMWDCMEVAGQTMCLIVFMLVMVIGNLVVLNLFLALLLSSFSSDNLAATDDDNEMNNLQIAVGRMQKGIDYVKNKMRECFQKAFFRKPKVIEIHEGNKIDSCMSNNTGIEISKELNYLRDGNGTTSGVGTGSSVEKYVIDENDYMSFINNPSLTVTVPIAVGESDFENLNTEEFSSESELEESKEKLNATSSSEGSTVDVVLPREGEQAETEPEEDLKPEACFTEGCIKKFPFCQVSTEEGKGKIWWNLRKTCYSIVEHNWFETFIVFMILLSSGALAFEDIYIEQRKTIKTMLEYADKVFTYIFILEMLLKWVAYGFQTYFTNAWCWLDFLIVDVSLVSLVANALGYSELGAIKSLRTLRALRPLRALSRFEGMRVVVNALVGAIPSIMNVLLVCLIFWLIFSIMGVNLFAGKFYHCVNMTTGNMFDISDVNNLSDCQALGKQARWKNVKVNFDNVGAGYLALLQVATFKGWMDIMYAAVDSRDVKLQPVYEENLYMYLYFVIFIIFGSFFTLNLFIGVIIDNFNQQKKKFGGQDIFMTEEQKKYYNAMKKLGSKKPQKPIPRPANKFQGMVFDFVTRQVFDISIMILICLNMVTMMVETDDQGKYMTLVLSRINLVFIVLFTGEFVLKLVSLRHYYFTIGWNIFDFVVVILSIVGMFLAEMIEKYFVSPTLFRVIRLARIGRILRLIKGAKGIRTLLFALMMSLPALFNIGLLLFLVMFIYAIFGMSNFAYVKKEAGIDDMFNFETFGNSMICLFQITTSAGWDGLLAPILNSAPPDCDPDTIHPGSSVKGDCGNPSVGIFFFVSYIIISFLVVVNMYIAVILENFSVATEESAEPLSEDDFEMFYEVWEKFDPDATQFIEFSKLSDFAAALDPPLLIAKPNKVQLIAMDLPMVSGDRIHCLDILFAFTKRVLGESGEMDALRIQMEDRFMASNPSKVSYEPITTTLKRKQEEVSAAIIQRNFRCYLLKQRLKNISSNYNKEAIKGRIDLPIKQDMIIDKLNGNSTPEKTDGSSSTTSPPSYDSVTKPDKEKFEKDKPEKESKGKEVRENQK
hNav1.5, sequence (Q14524 whole entry, looked up): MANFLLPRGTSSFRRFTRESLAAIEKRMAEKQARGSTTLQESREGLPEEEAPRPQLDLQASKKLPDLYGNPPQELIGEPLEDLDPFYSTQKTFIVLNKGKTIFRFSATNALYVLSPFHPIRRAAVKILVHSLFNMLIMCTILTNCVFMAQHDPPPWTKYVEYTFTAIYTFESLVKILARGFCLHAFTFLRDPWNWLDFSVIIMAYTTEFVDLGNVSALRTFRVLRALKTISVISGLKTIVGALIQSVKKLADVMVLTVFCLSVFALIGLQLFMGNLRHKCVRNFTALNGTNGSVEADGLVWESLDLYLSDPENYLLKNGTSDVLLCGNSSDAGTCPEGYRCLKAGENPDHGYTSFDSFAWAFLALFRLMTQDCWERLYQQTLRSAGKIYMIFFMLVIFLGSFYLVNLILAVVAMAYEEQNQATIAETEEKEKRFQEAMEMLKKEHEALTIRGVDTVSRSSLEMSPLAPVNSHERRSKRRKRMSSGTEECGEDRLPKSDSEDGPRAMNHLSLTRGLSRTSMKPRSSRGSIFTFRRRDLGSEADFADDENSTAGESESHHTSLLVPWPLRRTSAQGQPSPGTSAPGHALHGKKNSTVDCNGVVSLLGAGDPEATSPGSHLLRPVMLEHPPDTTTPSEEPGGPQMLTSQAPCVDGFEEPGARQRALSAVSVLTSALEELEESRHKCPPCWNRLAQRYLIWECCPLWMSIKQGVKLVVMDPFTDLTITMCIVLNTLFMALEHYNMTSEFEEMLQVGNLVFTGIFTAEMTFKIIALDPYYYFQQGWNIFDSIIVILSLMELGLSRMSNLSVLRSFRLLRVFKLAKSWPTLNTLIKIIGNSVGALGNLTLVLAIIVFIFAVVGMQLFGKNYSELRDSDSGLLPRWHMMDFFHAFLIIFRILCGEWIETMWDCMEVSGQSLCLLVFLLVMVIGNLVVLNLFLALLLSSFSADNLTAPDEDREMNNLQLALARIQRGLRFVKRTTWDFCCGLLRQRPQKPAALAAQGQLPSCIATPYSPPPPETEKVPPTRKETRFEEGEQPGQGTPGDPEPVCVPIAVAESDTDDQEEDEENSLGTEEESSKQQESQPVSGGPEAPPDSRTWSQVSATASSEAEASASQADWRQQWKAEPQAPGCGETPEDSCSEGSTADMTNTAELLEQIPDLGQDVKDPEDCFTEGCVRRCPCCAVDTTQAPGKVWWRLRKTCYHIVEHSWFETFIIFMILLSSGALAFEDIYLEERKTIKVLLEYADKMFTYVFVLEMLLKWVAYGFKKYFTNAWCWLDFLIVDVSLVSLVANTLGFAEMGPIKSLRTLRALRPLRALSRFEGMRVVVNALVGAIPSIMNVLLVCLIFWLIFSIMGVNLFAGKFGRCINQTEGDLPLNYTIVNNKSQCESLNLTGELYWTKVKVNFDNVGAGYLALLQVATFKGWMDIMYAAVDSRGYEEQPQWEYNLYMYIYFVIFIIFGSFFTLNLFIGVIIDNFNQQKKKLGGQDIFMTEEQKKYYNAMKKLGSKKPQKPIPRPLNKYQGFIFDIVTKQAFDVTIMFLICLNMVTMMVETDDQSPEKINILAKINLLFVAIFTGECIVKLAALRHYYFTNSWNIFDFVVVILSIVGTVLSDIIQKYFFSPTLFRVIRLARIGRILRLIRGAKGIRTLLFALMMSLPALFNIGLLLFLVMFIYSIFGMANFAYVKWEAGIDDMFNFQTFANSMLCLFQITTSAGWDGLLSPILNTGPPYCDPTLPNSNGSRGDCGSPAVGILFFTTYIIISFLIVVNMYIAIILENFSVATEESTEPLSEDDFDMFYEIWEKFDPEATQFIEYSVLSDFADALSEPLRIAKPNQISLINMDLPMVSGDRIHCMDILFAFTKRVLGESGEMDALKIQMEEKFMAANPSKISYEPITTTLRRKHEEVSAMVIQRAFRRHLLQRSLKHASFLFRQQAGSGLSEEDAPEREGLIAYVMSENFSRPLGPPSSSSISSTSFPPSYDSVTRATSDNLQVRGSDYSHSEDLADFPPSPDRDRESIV

As to `CC[C@H](C)[C@@H]1NC(=O)[C@@H]2CSSC[C@@H]3NC(=O)[C@H](C(C)C)NC(=O)[C@H](CC(C)C)NC(=O)[C@H](CC(N)=O)NC(=O)[C@@H]4CCCN4C(=O)[C@H](CCCNC(=N)N)NC(=O)[C@H](CSSC[C@H](NC(=O)[C@@H](N)CC(=O)O)C(=O)N[C@@H](CC(C)C)C(=O)NCC(=O)N[C@@H](Cc4ccccc4)C(=O)N[C@@H](CCSC)C(=O)N[C@@H](CCCNC(=N)N)C(=O)N[C@@H](CCCCN)C(=O)N2)NC(=O)[C@H](CSSC[C@@H](C(=O)N[C@@H](CCCCN)C(=O)N[C@@H](Cc2ccc(O)cc2)C(=O)N[C@H](C(=O)N[C@@H](Cc2ccc4ccccc4c2)C(=O)N[C@@H](Cc2c[nH]c4ccccc24)C(N)=O)C(C)C)NC(=O)[C@H](Cc2c[nH]c4ccccc24)NC(=O)[C@H](CCCCN)NC(=O)[C@H](Cc2c[nH]cn2)NC(=O)[C@H]([C@@H](C)O)NC(=O)[C@H](CCCNC(=N)N)NC(=O)[C@H](CO)NC3=O)NC(=O)[C@H](CCCCN)NC(=O)[C@H](CC(=O)O)NC(=O)[C@H](CC(N)=O)NC(=O)[C@H](CC(=O)O)NC(=O)[C@@H]2CCCN2C1=O` [compound 139] (H-DCLGFMRKCIPDNDKCCRPNLVCSRTHKWCKYV[2Nal]W-NH2; disulfide 2-17, 9-23, 16-30), the pIC50 on hNav1.7 (use-dependent block, hNav1.7) was 6.96; at hNav1.5 (use-dependent block, hNav1.5), 5.67; at hNav1.3 (use-dependent block, hNav1.3) it was 7.30.
Taken in the same sequence, the figures for `CC[C@H](C)[C@@H]1NC(=O)[C@@H](NC(=O)[C@H](CCCCN)NC(=O)[C@H](CCCNC(=N)N)NC(=O)[C@H](CCSC)NC(=O)[C@H](Cc2ccccc2)NC(=O)CNC(=O)[C@H](CC(C)C)NC(=O)[C@H](C)NC(=O)[C@@H](N)CC(=O)O)CSSC[C@@H]2NC(=O)[C@H](C(C)C)NC(=O)[C@H](CC(C)C)NC(=O)[C@H](CC(N)=O)NC(=O)[C@@H]3CCCN3C(=O)[C@H](CCCNC(=N)N)NC(=O)[C@H](C)NC(=O)[C@H](CSSC[C@@H](C(=O)N[C@@H](CCCCN)C(=O)N[C@@H](Cc3ccc(O)cc3)C(=O)N[C@H](C(=O)N[C@@H](Cc3ccccc3)C(N)=O)C(C)C)NC(=O)[C@H](Cc3c[nH]c4ccccc34)NC(=O)[C@H](CCCCN)NC(=O)[C@H](Cc3c[nH]cn3)NC(=O)[C@H]([C@@H](C)O)NC(=O)[C@H](CCCNC(=N)N)NC(=O)[C@H](CO)NC2=O)NC(=O)[C@H](CCCCN)NC(=O)[C@H](CC(=O)O)NC(=O)[C@H](CC(N)=O)NC(=O)[C@H](CC(=O)O)NC(=O)[C@@H]2CCCN2C1=O` [compound 140] (H-DALGFMRKCIPDNDKCARPNLVCSRTHKWCKYVF-NH2; disulfide 9-23, 16-30) were 5.61, 4.72 and 6.10.
In the case of `CC[C@H](C)[C@@H]1NC(=O)[C@@H]2CSSC[C@@H]3NC(=O)[C@H](C(C)C)NC(=O)[C@H](CC(C)C)NC(=O)[C@H](CCC(=O)O)NC(=O)[C@@H]4CCCN4C(=O)[C@H](CCCNC(=N)N)NC(=O)[C@H](CSSC[C@H](NC(=O)[C@@H](N)CC(=O)O)C(=O)N[C@@H](CC(C)C)C(=O)NCC(=O)N[C@@H](Cc4ccccc4)C(=O)N[C@@H](CCSC)C(=O)N[C@@H](CCCNC(=N)N)C(=O)N[C@@H](CCCCN)C(=O)N2)NC(=O)[C@H](CSSC[C@@H](C(=O)N[C@@H](CCCCN)C(=O)N[C@@H](Cc2ccc(O)cc2)C(=O)N[C@H](C(=O)N[C@@H](Cc2ccccc2)C(N)=O)C(C)C)NC(=O)[C@H](Cc2c[nH]c4ccccc24)NC(=O)[C@H](CCCCN)NC(=O)[C@H](Cc2cnc[nH]2)NC(=O)[C@H]([C@@H](C)O)NC(=O)[C@H](CCCNC(=N)N)NC(=O)[C@H](CO)NC3=O)NC(=O)[C@H](CCCCN)NC(=O)[C@H](CC(=O)O)NC(=O)[C@H](CC(N)=O)NC(=O)[C@H](CC(=O)O)NC(=O)[C@@H]2CCCN2C1=O` [compound 149] (H-DCLGFMRKCIPDNDKCCRPELVCSRTHKWCKYVF-NH2; disulfide 2-17, 9-23, 16-30), the pIC50 at hNav1.7 (Use) is 5.85; at hNav1.5 (Use), 5.13; at hNav1.3 (Use), 5.99.
Take `CC[C@H](C)[C@@H]1NC(=O)[C@@H]2CSSC[C@@H]3NC(=O)[C@H](C(C)C)NC(=O)[C@H](CC(C)C)NC(=O)[C@H](CC(N)=O)NC(=O)[C@@H]4CCCN4C(=O)[C@H](CCCNC(=N)N)NC(=O)[C@H](CSSC[C@H](NC(=O)[C@@H](N)CC(=O)O)C(=O)N[C@@H](CC(C)C)C(=O)NCC(=O)N[C@@H](Cc4ccccc4)C(=O)N[C@@H](CCSC)C(=O)N[C@@H](CCCNC(=N)N)C(=O)N[C@@H](CCCCN)C(=O)N2)NC(=O)[C@H](CSSC[C@@H](C(=O)N[C@@H](CCCCN)C(=O)N[C@@H](Cc2ccc(O)cc2)C(=O)N[C@H](C(=O)N[C@@H](Cc2ccccc2)C(N)=O)C(C)C)NC(=O)[C@H](Cc2c[nH]c4ccccc24)NC(=O)[C@H](CCCCN)NC(=O)[C@H](Cc2cnc[nH]2)NC(=O)[C@H]([C@@H](C)O)NC(=O)[C@H](CCCNC(=N)N)NC(=O)[C@H](CCC(=O)O)NC3=O)NC(=O)[C@H](CCCCN)NC(=O)[C@H](CC(=O)O)NC(=O)[C@H](CC(N)=O)NC(=O)[C@H](CC(=O)O)NC(=O)[C@@H]2CCCN2C1=O` [compound 150] (H-DCLGFMRKCIPDNDKCCRPNLVCERTHKWCKYVF-NH2; disulfide 2-17, 9-23, 16-30): the results for the pIC50 at hNav1.7 (Use), on hNav1.5 (Use) and at hNav1.3 (Use) were 5.21, 4.94 and 5.17, respectively.
On the same counts, the results for `CC[C@H](C)[C@@H]1NC(=O)[C@@H]2CSSC[C@@H]3NC(=O)[C@H](C(C)C)NC(=O)[C@H](CC(C)C)NC(=O)[C@H](CC(N)=O)NC(=O)[C@@H]4CCCN4C(=O)[C@H](CCCNC(=N)N)NC(=O)[C@H](CSSC[C@H](NC(=O)[C@@H](N)CC(=O)O)C(=O)N[C@@H](CC(C)C)C(=O)NCC(=O)N[C@@H](Cc4ccccc4)C(=O)N[C@@H](CCSC)C(=O)N[C@@H](CCCNC(=N)N)C(=O)N[C@@H](CCCCN)C(=O)N2)NC(=O)[C@H](CSSC[C@@H](C(=O)N[C@@H](CCCCN)C(=O)N[C@@H](Cc2ccc(O)cc2)C(=O)N[C@H](C(=O)N[C@@H](Cc2ccccc2)C(N)=O)C(C)C)NC(=O)[C@H](Cc2c[nH]c4ccccc24)NC(=O)[C@H](CCCCN)NC(=O)[C@H](Cc2c[nH]cn2)NC(=O)[C@H]([C@@H](C)O)NC(=O)[C@H](CCC(=O)O)NC(=O)[C@H](CO)NC3=O)NC(=O)[C@H](CCCCN)NC(=O)[C@H](CC(=O)O)NC(=O)[C@H](CC(N)=O)NC(=O)[C@H](CC(=O)O)NC(=O)[C@@H]2CCCN2C1=O` [compound 151] (H-DCLGFMRKCIPDNDKCCRPNLVCSETHKWCKYVF-NH2; disulfide 2-17, 9-23, 16-30) are 6.15, 4.85 and 5.93.
